Experimental findings from patent US20230265151A1, “GIP/GLP1 CO-AGONIST COMPOUNDS” (priority 2020, published 2023) are described below.

Where two headings read alike, the source gives them in different places. Bounds are passed on as bounds.

Experiment [1] has as its target T1, human GLP-1 receptor (hGLP-1R) (Homo sapiens, UniProt P43220).
T1 construct: expressed in transfected cells; crude membranes
Nature of the experiment: [125I]-GLP-1 binding, SPA with membranes of HEK293 cells expressing hGLP-1R. The procedure: Two methods are used for the preparation of crude cell membranes.
Method 1: Frozen cell pellets are lysed on ice in hypotonic buffer containing 50 mM Tris HCl, pH 7.5, and Roche Complete™ Protease Inhibitors with EDTA. […] The homogenate is centrifuged at 4° C. at 1100 × g for 10 minutes. The supernatant is collected and stored on ice while the pellets are resuspended in homogenization buffer and rehomogenized as described above. The homogenate is centrifuged at 1100 × g for 10 minutes. The second supernatant is combined with the first supernatant and centrifuged at 35000 × g for 1 hour at 4° C. The resulting membrane pellet is resuspended in homogenization buffer containing protease inhibitors at approximately 1 to 3 mg/mL, quick frozen in liquid nitrogen and stored as aliquots in a -80° C. freezer until use.
The homogenate is centrifuged at 4° C. at 1800 × g for 15 minutes. The supernatant is collected and stored on ice while the pellets are resuspended in homogenization buffer (without DNAse I) and rehomogenized as described above. The homogenate is centrifuged at 1800 × g for 15 minutes. The second supernatant is combined with the first supernatant and centrifuged an additional time at 1800 × g for 15 minutes. The overall supernatant is then centrifuged at 25000 × g for 30 minutes at 4° C. The resulting membrane pellet is resuspended in homogenization buffer (without DNAse I) containing protease inhibitors at approximately 1 to 3 mg/mL and stored as aliquots in a -80° C. freezer until use.
The human GLP-1 receptor binding assay is performed using an SPA format with WGA beads. The binding buffer contains 25 mM HEPES, pH 7.4, 2.5 mM CaCl2, 1 mM MgCl2, 0.1% (w/v) bacitracin, 0.003% (w/v) TWEEN®-20, and Roche Complete™ Protease Inhibitors without EDTA.
Raw CPM data for concentration curves of peptides, Gcg, GLP-1, or GIP are converted to percent inhibition by subtracting nonspecific binding (binding in the presence of excess unlabeled Gcg, GLP-1, or GIP, respectively) from the individual CPM values and dividing by the total binding signal, also corrected by subtracting nonspecific binding. Data are analyzed using four-parameter (curve maximum, curve minimum, IC50, Hill slope) nonlinear regression routines (Genedata Screener, version 12.0.4, Genedata AG, Basal, Switzerland). […] Values for Ki are reported as the geometric mean, with error expressed as the standard error of the mean (SEM) and n is equal to the number of independent replicates (determined in assays performed on different days). Geometric Means are calculated as follows: […]
The Ki Ratio (Ki for native control peptide/Ki for test compound) at each receptor and each species is calculated. The Ki Ratio is a rapid indication of the apparent affinity of a peptide compared to the native control peptide.
n=⅟x means that only one value out of the total number of replicates (x) is used to express the mean. SEM is only calculated when n=2 or greater non-qualified results exist. Means are expressed as GeoMetric means with the standard error of the mean (SEM) and the number of replicates (n) indicated in parenthesis.

A further experiment concerns the target T2, hGIPR (Homo sapiens, UniProt P48546).
T2 construct: expressed in transfected cells
T2 sequence (P48546 22-466): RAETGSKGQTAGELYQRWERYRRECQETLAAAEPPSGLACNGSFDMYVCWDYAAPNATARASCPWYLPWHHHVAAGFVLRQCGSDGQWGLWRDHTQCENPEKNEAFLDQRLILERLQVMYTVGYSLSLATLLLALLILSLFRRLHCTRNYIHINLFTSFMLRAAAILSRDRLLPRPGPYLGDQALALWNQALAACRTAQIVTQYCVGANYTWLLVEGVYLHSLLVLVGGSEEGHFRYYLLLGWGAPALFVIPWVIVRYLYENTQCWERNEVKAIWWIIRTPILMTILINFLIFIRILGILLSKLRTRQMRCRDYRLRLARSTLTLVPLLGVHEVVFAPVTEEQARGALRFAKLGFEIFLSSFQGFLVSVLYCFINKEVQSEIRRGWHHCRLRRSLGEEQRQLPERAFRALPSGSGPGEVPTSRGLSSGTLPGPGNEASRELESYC
Nature of the experiment: Functional cAMP formation (HTRF) in HEK-293 clonal cells expressing hGIPR, 0.1% bovine casein, without or with 1.0% human serum albumin. The class given is cell-based. To be noted: for Emax: percent of maximal response to GIP(1-42)NH2; for EC50: hGIPR EC50, nM (SEM, n), 37° C., geometric mean. In outline: (§1)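 Readings of the HTRF 665/620 nm ratio, which falls as cAMP rises, were converted to nM cAMP using a standard curve after 30 min peptide exposure at 37° C.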
(Changes in cAMP serve as a functional read-out for many G protein-coupled receptors.)

The target in another experiment is T3, hGCGR (Homo sapiens, UniProt P47871).
T3 construct: expressed in transfected cells
The experiment in a line: Functional cAMP formation (HTRF) in HEK-293 clonal cells expressing hGCGR, 0.1% bovine casein, without or with 1.0% human serum albumin. Particulars: hGCGR EC50, nM (SEM, n). The class given is cell-based. In outline:
as §1

The target of the next experiment is hGLP-1R (Homo sapiens, UniProt P43220). The experiment in a line: Functional cAMP formation (HTRF) in HEK-293 clonal cells expressing hGLP-1R, 0.1% bovine casein, without or with 1.0% human serum albumin. The class given is cell-based. To be noted: for Emax: percent of maximal response to GLP-1(7-36)NH2; for EC50: hGLP-1R EC50, nM (SEM, n), 37° C., geometric mean. More on the design: expressed in transfected cells. The procedure, abridged:
as §1

The mark [2] stands for this setting: HEK293, read-out: hGIPR Emax, % ± SEM, cAMP, 37° C., 0.1% bovine casein and 1.0% human serum albumin.
[3] abbreviates: cAMP, 0.1% bovine casein (no human serum albumin).
Where [4] appears, read: cAMP, 37° C., 0.1% bovine casein (no human serum albumin), geometric mean.
Where [5] appears, read: cAMP, 37° C., 0.1% bovine casein and 1.0% human serum albumin, geometric mean (SEM, n).
The mark [6] stands for this setting: HEK293, read-out: hGLP-1R Emax, % ± SEM, cAMP, 37° C., 0.1% bovine casein and 1.0% human serum albumin.
Where [7] appears, read: HEK293, read-out: hGLP-1R Emax, % ± SEM, cAMP, 37° C., 0.1% bovine casein, arithmetic mean.
Setting [8] is: 0.1% bovine casein and 1.0% human serum albumin.

T3 sequence (P47871 26-477): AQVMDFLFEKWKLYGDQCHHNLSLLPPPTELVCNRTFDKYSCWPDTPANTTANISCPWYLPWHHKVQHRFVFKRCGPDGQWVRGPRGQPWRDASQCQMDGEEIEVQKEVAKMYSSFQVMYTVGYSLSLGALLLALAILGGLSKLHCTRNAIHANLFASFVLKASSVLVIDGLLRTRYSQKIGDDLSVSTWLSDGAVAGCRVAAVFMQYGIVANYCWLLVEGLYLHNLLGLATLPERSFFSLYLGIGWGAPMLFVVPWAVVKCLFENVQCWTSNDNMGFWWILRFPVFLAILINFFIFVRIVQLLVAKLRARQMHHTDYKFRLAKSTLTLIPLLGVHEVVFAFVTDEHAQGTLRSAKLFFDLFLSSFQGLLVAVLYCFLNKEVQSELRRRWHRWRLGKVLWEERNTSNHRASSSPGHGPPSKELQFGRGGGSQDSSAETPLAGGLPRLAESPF
hGLP-1R, sequence (P43220 24-463): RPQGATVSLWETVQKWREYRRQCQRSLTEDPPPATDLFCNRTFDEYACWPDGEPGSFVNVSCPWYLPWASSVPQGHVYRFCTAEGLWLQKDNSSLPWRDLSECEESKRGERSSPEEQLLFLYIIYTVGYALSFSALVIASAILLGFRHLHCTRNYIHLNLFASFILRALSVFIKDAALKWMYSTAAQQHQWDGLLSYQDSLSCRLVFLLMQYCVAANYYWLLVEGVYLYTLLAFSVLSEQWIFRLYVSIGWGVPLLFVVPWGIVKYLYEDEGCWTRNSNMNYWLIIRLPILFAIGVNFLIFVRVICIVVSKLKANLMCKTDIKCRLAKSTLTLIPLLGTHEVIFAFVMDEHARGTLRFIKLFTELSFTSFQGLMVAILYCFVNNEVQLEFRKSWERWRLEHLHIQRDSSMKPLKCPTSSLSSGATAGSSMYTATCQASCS
T1 sequence (P43220 24-463): as above

The compound `CC[C@H](C)[C@H](NC(=O)[C@H](CC(C)C)NC(=O)[C@](C)(Cc1ccc(O)cc1)NC(=O)[C@H](CCCCNC(=O)COCCOCCNC(=O)[C@H]1CC[C@H](CNC(=O)CC[C@H](NC(=O)CCCCCCCCCOc2ccc(C(=O)O)cc2)C(=O)O)CC1)NC(=O)[C@@H](NC(=O)[C@H](Cc1ccccc1)NC(=O)[C@H](CCCN)NC(=O)C(C)(C)NC(=O)[C@H](CCC(N)=O)NC(=O)[C@H](C)NC(=O)[C@H](CCC(N)=O)NC(=O)[C@H](CCCN)NC(=O)[C@H](CC(=O)O)NC(=O)[C@H](CC(C)C)NC(=O)[C@](C)(CC(C)C)NC(=O)[C@@H](NC(=O)C(C)(C)NC(=O)[C@H](Cc1ccncc1)NC(=O)[C@H](CC(=O)O)NC(=O)[C@H](CO)NC(=O)[C@@H](NC(=O)[C@](C)(Cc1ccccc1F)NC(=O)[C@@H](NC(=O)CNC(=O)[C@H](CCC(=O)O)NC(=O)C(C)(C)NC(=O)[C@@H](N)Cc1ccc(O)cc1)[C@@H](C)O)[C@@H](C)O)[C@@H](C)CC)[C@@H](C)CC)C(=O)N[C@@H](CCCCNC(=O)COCCOCCNC(=O)[C@H]1CC[C@H](CNC(=O)CC[C@H](NC(=O)CCCCCCCCCOc2ccc(C(=O)O)cc2)C(=O)O)CC1)C(=O)NCC(=O)NCC(=O)N1CCC[C@H]1C(=O)N[C@@H](CO)C(=O)N[C@@H](CO)C(=O)NCC(=O)N[C@@H](C)C(=O)N1CCC[C@H]1C(=O)N1CCC[C@H]1C(=O)N1CCC[C@H]1C(=O)N[C@@H](CO)C(N)=O` [Example 473] gave a Ki in experiment [1] of 0.169 nM. For the same compound, the figures for the Emax at hGIPR (setting [2]), at hGLP-1R (setting [6]) and on hGLP-1R (setting [7]) were 92.8%, 114% and 118%, respectively. In addition, the EC50 was 0.0163 nM at hGIPR (setting [3]), greater than 9950 nM at hGCGR (setting [4]), greater than 9950 nM at hGCGR (setting [5]) and 0.192 nM at hGLP-1R (setting [3]).
`CCCCCCCCCCCCCCCC(=O)N[C@@H](CCC(=O)NCCOCCOCC(=O)NCCOCCOCC(=O)NCCCC[C@H](NC(=O)[C@H](CCCN)NC(=O)[C@H](CC(=O)O)NC(=O)[C@H](CC(C)C)NC(=O)[C@](C)(CC(C)C)NC(=O)[C@@H](NC(=O)[C@H](CO)NC(=O)[C@H](Cc1ccncc1)NC(=O)[C@H](CC(=O)O)NC(=O)[C@H](CO)NC(=O)[C@@H](NC(=O)[C@](C)(Cc1ccccc1F)NC(=O)[C@@H](NC(=O)CNC(=O)[C@H](CCC(=O)O)NC(=O)C(C)(C)NC(=O)[C@@H](N)Cc1ccc(O)cc1)[C@@H](C)O)[C@@H](C)O)[C@@H](C)CC)C(=O)N[C@@H](C)C(=O)N[C@@H](CCC(N)=O)C(=O)NC(C)(C)C(=O)N[C@@H](CCC(=O)O)C(=O)N[C@@H](Cc1ccccc1)C(=O)N[C@H](C(=O)N[C@@H](CCCCNC(=O)COCCOCCNC(=O)COCCOCCNC(=O)CC[C@H](NC(=O)CCCCCCCCCCCCCCC)C(=O)O)C(=O)N[C@@](C)(Cc1ccc(O)cc1)C(=O)N[C@@H](CC(C)C)C(=O)N[C@H](C(=O)N[C@@H](CCC(=O)O)C(=O)NCC(=O)NCC(=O)N1CCC[C@H]1C(=O)N[C@@H](CO)C(=O)N[C@@H](CO)C(=O)NCC(=O)N[C@@H](C)C(=O)N1CCC[C@H]1C(=O)N1CCC[C@H]1C(=O)N1CCC[C@H]1C(=O)N[C@@H](CO)C(N)=O)[C@@H](C)CC)[C@@H](C)CC)C(=O)O` [Example 22]: in experiment [1], affinity was put at a Ki of 0.301 nM. Further, the Emax at hGIPR (HEK293, read-out: hGIPR Emax, % ± SEM, 0.1% bovine casein and 1.0% human serum albumin, 37° C.) is 93.4 ± 0.775%. The EC50 is 0.533 nM on hGIPR (setting [8]); greater than 9950 nM at hGCGR (0.1% bovine casein and 1.0% human serum albumin, 37° C., geometric mean); greater than 9950 nM at hGCGR (cAMP, incubated at 37° C., 0.1% bovine casein (no human serum albumin), geometric mean); 1.5 nM at hGLP-1R (setting [8]).
`CC[C@H](C)[C@H](NC(=O)[C@H](CC(C)C)NC(=O)[C@](C)(Cc1ccc(O)cc1)NC(=O)[C@H](CCCCNC(=O)COCCOCCNC(=O)COCCOCCNC(=O)[C@H]1CC[C@H](CNC(=O)CC[C@H](NC(=O)CCCCCCCCCOc2ccc(C(=O)O)cc2)C(=O)O)CC1)NC(=O)[C@@H](NC(=O)[C@H](Cc1ccccc1)NC(=O)[C@H](CCCN)NC(=O)C(C)(C)NC(=O)[C@H](CCC(N)=O)NC(=O)[C@H](C)NC(=O)[C@H](CCC(N)=O)NC(=O)[C@H](CCCN)NC(=O)[C@H](CC(=O)O)NC(=O)[C@H](CC(C)C)NC(=O)[C@](C)(CC(C)C)NC(=O)[C@@H](NC(=O)C(C)(C)NC(=O)[C@H](Cc1ccncc1)NC(=O)[C@H](CC(=O)O)NC(=O)[C@H](CO)NC(=O)[C@@H](NC(=O)[C@](C)(Cc1ccccc1F)NC(=O)[C@@H](NC(=O)CNC(=O)[C@H](CCC(=O)O)NC(=O)C(C)(C)NC(=O)[C@@H](N)Cc1ccc(O)cc1)[C@@H](C)O)[C@@H](C)O)[C@@H](C)CC)[C@@H](C)CC)C(=O)N[C@@H](CCCCNC(=O)COCCOCCNC(=O)COCCOCCNC(=O)[C@H]1CC[C@H](CNC(=O)CC[C@H](NC(=O)CCCCCCCCCOc2ccc(C(=O)O)cc2)C(=O)O)CC1)C(=O)NCC(=O)NCC(=O)N1CCC[C@H]1C(=O)N[C@@H](CO)C(=O)N[C@@H](CO)C(=O)NCC(=O)N[C@@H](C)C(=O)N1CCC[C@H]1C(=O)N1CCC[C@H]1C(=O)N1CCC[C@H]1C(=O)N[C@@H](CO)C(N)=O` [Example 471] yielded a Ki in experiment [1] of 0.197 nM. In addition, the figures for the Emax at hGIPR (setting [2]), at hGLP-1R (setting [6]) and at hGLP-1R (setting [7]) were 90.1%, 110% and 112%, respectively. For the same compound, the EC50 at hGIPR (setting [3]) is 0.0107 nM; on hGCGR (setting [4]), greater than 9950 nM; on hGCGR (setting [5]) it was greater than 9950 nM; on hGLP-1R (setting [3]), 0.143 nM.

By Ki is commonly meant the dissociation constant of the complex between target and ligand, obtained from inhibition or displacement. High values mean lower affinity, low ones higher affinity. As usually defined, the Emax is the maximal effect, on the per cent scale that the assay sets. One may read the EC50 as the concentration needed to bring the measured effect to its halfway point. Low values mean greater potency, high ones weaker potency.
